What was measured:
CD40 = assay: IFN-γ induced CD40 expression on vascular endothelial cells (Western blot); type: cell-based, human; settings: ECs; for CD40 expression with co-treatment by IFN-γ and statin: IFN-γ 500 U/ml, 24 hrs, Western blotting
Source text: Cell isolation and culture. […] Human vascular smooth muscle (SMCs) cells were isolated from human saphenous veins and mammary arteries by explant outgrowth, and cultured in DMEM (BioWhittaker) supplemented with 1% L-glutamine (BioWhittaker), 1% penicillin/streptomycin, and 10% FCS. Both cell types were subcultured following trypsinization (0.5% trypsin (Worthington Biochemicals)/0.2% EDTA (EM Science)) in P100-culture dishes (Becton Dickinson).
Western blots analysis. Cells were harvested in ice-cold RIPA solubilization buffer, and total amounts of protein were determined using a bicinchoninic acid quantification assay (Pierce, Rockford, Ill.). Twenty μg of total protein/lane were separated by SDS/PAGE under reducing conditions and blotted to polyvinylidene difluoride membranes (Millipore Corp., Bedford, Mass.) using a semidry blotting apparatus (Bio-Rad, Hercules, Calif.). Blots were blocked overnight in 5% defatted dry milk/PBS/0.1% Tween, and then incubated for 1 hour at room temperature with primary antibody (1:40) (rabbit […] anti-CD40 Santa Cruz, San Diego, Calif.), or mouse monoclonal anti-human […] (1:5000) (Pharmingen) for control of loading. This was followed by a 1 hour incubation with secondary peroxidase-conjugated antibody (1:10,000), (Jackson Immunoresearch, West Grove, Pa.). […] Immunoreactivity was detected using the enhanced chemiluminescence detection method according to the manufacturer's instructions. (Amersham, Dübendorf Switzerland), and subsequent exposure of the membranes to x-ray film. Analysis of quantification of detection was performed using AIDA software.

CRP = settings: cited from earlier work
MHC class II = settings: ECs, IFN-γ 500 U/ml 48 hrs; compared among Atorvastatin, Lovastatin, Pravastatin
Protocol: Cell isolation and culture. […] Flow cytometry. […] Data were analyzed using […] software (Becton Dickinson).

CD40 mediated pathways = assay: CD40L induced cytokine release (IL-6, IL-8, MCP-1) from ECs, ELISA; type: cell-based, human; settings: added to statin and CD154
Protocol: Cytokines assay. […] Experiments were performed in the presence of polymyxin B (1 μg/ml). Antibody binding was detected by adding substrate (R&D), and absorbance measured at 450 nm using a Dynatech plate reader. The amount of IL-6, IL-8 and MCP-1 detected was calculated from a standard curve prepared with the recombinant protein. Samples were assayed in duplicates.
To investigate the functional consequences of inhibition of CD40 expression by statins on Endothelial Cells activation by CD40L, secreted cytokines were analyzed such as Interleukin-6 (IL-6), interleukin-8 (IL-8), macrophages chemoattractant protein-1 (MCP-1). Addition of an anti-CD40LmAb blocked the induction of all three secreted cytokines in response to CD40 ligation.

| Molecule | CD40 expression with co-treatment by IFN-γ and statin (CD40) | CRP levels (CRP; 80 mg/day) | effect on biological markers of inflammation (CRP; in vivo) | potency as MHC class II repressor (MHC class II) | effect on IFN-γ induced CD40 in the presence of L-mevalonate (CD40) | IFN-γ induction of CD40, dose dependence (CD40; IFN-γ 500 U/ml 24 hrs) | concentration range over which effect on CD40 was observed (CD40; IFN-γ 500 U/ml 24 hrs) [µM] | CD40 expression, treatment with statin alone (CD40; without IFN-γ) | reversal of statin effect on cytokine secretion (CD40 mediated pathways) |
| --- | --- | --- | --- | --- | --- | --- | --- | --- | --- |
| CC[C@H](C)C(=O)O[C@H]1C[C@@H](C)C=C2C=C[C@H](C)[C@H](CC[C@@H]3C[C@@H](O)CC(=O)O3)[C@H]21 [lovastatin, Lovastatin] | decreased | – | – | – | – | – | – | – | – |
| CC(C)c1c(C(=O)Nc2ccccc2)c(-c2ccccc2)c(-c2ccc(F)cc2)n1CC[C@@H](O)C[C@@H](O)CC(=O)O [Atorvastatin] | decreased | decrease in CRP levels | dose-dependent | most powerful MHC class II repressor | markedly reduced | repressed this induction of CD40 in a dose-dependant manner | 0.08 to 5 | had an effect on CD40 expression | – |
| L-mevalonate | – | – | – | – | – | – | – | – | significantly reverses the process |

Reference: patent US20070003636A1, “Statins (HMG-COA reductase inhibitors) as a novel type of immunomodulator, immunosuppressor and anti-inflammatory agent” (priority 2003, published 2007)
